Test results as given in US20240124483A1, “Methods for the Treatment of Fibrotic Disease” (SHY Therapeutics, LLC, priority 2021, published 2024).
Like-named read-outs stand apart in the source and are kept apart here.

What was measured:
[1] = test system: MAPK p38; experiment: MAPK p38 Activation Assay in C2C12 (western blot); assay type: cell-based, mouse; set-up: key: Y = yes; N = No; conditions: at 10 μM
Method: Cell lines: Human tumor-derived pancreatic cancer cell line Panc-1 and mouse muscle myoblast C2C12 were purchased from American Type Culture Collection and grown in complete DMEM-High Glucose, supplemented with penicillin (100 U/mL), streptomycin (100 μg/mL), and 10% heat-inactivated FBS at 37° C. in a humidified incubator with 5% CO2.
Method: Cells were plated at 350000 cells/well density in a 12-well plate, allowed 3 hours to adhere to the plate, then starved in the appropriate medium in the presence of 0.5% FBS overnight. The small molecules to be tested were added to the cells in the final concentration of 10 μM in the presence of 0.3% DMSO for 3 hours incubation at 37° C. For IC50 value determination, serial dilutions of compounds were added to cells under the same conditions. […] Protein concentration was assessed by BCA protein assay (Thermo Scientific). Phosphorylation level of MAPK p38 was determined by western blot.
Western blot protocol: Equal amounts of protein (15-50 μg) were separated by SDS-PAGE and transferred to nitrocellulose membranes (Invitrogen by Thermo Fisher Scientific). […] Membranes were blocked with 10% milk and phosphorylation levels of Smad2/Smad3 were assessed by incubating overnight at 4° C. with the following antibody: Phospho-p38 MAPK (Thr180/Tyr182), from Cell Signaling Technology. […]

[2] = test system: serum albumin in muscle tissues; experiment: Albumin analysis of muscle tissue in the D2-mdx mouse model (western blot, densitometry); assay type: in vivo
From the text: The experiment described herein was designed to monitor the effects of Compound 9 on two biomarkers related to fibrosis in D2-mdx mice. The first biomarker is Smad2 phosphorylation, and the second is the levels of serum albumin in the different muscle tissues. Fibrosis causes disruption of the fine transparent tubular sheath which envelops the fibers of skeletal muscles, this can result in various molecules from the blood and interstitial fluid leaking into myofibres. A classic example is serum albumin, which can be identified in tissue sections and considered to be hallmark of myofibre permeability.
Experimental Design: Compound 9 was suspended in 0.5% Hydroxypropyl Methylcellulose (HPMC)/0.1% Tween® 80 to a final concentration of 10 mg/mL. The dosing solutions were prepared prior to the start of the test and were stored in the dark and maintained in frozen aliquots. Doses were thawed prior to administration. Male D2-mdx (JAX Stock No: 013141) mice were sourced from The Jackson Laboratory and housed in solid bottom cages with standard chow and water ad libitum. Dosing was initiated when animals were ˜3 weeks old. Animals were dosed daily by intraperitoneal (IP) injection at 100 mg/kg or vehicle for 3 days. […] Mice were sacrificed by CO2 euthanasia approximately 6 hours after their day 3 dosing. Heart, diaphragm, quadriceps, tibialis anterior (TA) samples were collected at termination on day 3 and snap frozen. These samples were shipped on dry ice for analysis, and were stored at −80° C.
Tissue protein extraction: Frozen tissues were placed on ice in prechilled tubes with 30 μL/mg with of ice-cold RIPA buffer+Halt™ Protease & Phosphatase Inhibitor Cocktail. Tissue was homogenized with a manual tissue homogenizer then centrifuged at 14,000 RPM at 4° C. for 15 min. Supernatant was removed and protein concentration determined by BCA assay.
Western blot protocol: Equal amounts of protein (15-50 μg) were separated by SDS-PAGE and transferred to nitrocellulose membranes (Invitrogen by Thermo Fisher Scientific). The membrane was stained with Ponceau S Stain (Boston BioProducts) to verify uniform protein loading. Membranes were blocked with 10% milk and albumin levels were assessed by incubating overnight at 4° C. with albumin antibody (Cell Signaling Technology #4929). Then the membranes were incubated with HRP-conjugated secondary antibody (Jackson Immunoresearch, West Grove, PA). Bands were incubated in Amersham ECL Prime Western Blotting Detection Reagent (GE Healthcare) and visualized using the ChemiDoc MP imaging system (Bio-Rad).
Western blot images for samples collected from heart (FIG. 2), diaphragm (FIG. 3), quadriceps (FIG. 4), and tibialis anterior (TA, FIG. 5) tissues following termination on day 3 were analyzed, providing the results summarized herein below (derived by densitometry).

[3] = Observation for mortality and signs of pain or distress, DBA/2J mice; assay type: in vivo; conditions: male DBA/2J mice, single dose, up to 100 mg/kg
Method: Experimental Design: Compound 9 was suspended in 0.5% Hydroxypropyl Methylcellulose (HPMC)/0.1% Tween® 80 to a final concentration of 10 mg/mL. The dosing solutions were prepared prior to the start of the test. Male DBA/2J mice (Jackson Stock No: 000671) were housed in solid bottom cages with standard chow and water ad libitum. Dosing was initiated when animals were 7-8 weeks old. Mice were dosed at a volume of 10 mL/kg by intraperitoneal (IP) injection at 100 mg/kg or vehicle. […] Blood was collected at 15 min, 30 min, 1 h, 2 h, 4 h, 7 h, 16 h, 24 h by cardiac puncture, mixed gently 8 times and put on ice until centrifuged within 30 minutes of collection. The plasma was transferred to a 96-well plate for analysis of test compound levels.

[4] = Assessment of Plasma Exposure in DBA/2J mice; assay type: in vivo, mouse; conditions: for half-life / AUC(0-t) / Cmax / AUC(0-inf) / Tmax: male, DBA/2J, mouse plasma; for half-life / AUC(0-t) / Cmax / AUC(0-inf): mouse, plasma, po; for AUC(0-inf): read-out: AUCINFobs
[5] = D2-mdx mice, 100 mg/kg IP, 3 days
[6] = Ratio of Vehicle and Treated, 100 mg/kg IP, 3 days
[7] = Treated, 100 mg/kg IP daily for 3 days, D2-mdx mice, densitometry
[8] = 25 mg/kg, Group 2: 25 mg/kg PO, Vehicle 1
[9] = 100 mg/kg, Group 3: 100 mg/kg PO, Vehicle 1
[10] = 100 mg/kg, Group 4: 100 mg/kg PO, Vehicle 2

COCCNc1nc(-c2cn(C)cn2)nc2sc(-c3cccc(OC)c3Cl)c(-c3ccc(OC)cc3)c12 [Compound 8, 6-(2-Chloro-3-methoxyphenyl)-N-(2-methoxyethyl)-5-(4-methoxyphenyl)-2-(1-methyl-1H-imidazol-4-yl)thieno[2,3-d]pyrimidin-4-amine]
Activation of MAPK p38 in C2C12 [1]: Y

COCCNc1nc(-c2nccn2C)nc2sc(-c3cccc(OC)c3Cl)c(-c3ccccc3)c12 [Compound 9, 6-(2-Chloro-3-methoxyphenyl)-N-(2-methoxyethyl)-2-(1-methyl-1H-imidazol-2-yl)-5-phenylthieno[2,3-d]pyrimidin-4-amine]
Activation of MAPK p38 in C2C12 [1]: Y
serum albumin levels in the heart [2, 5]: No changes were detected
serum albumin levels in the tibialis anterior and quadricep muscles [2, 5]: clear decrease
Albumin, Quadriceps, Average, Ratio [2, 6]: 1.25
Albumin, Quadriceps, Median, Ratio [2, 6]: 1.21
Albumin, Tibialis anterior, Average, Ratio [2, 6]: 1.18
Albumin, Tibialis anterior, Median, Ratio [2, 6]: 1.26
Albumin, Quadriceps, Average [2, 7]: 32650 ± 4998
Albumin, Quadriceps, Median [2, 7]: 34329
Albumin, Tibialis anterior, Average [2, 7]: 34522 ± 4321
Albumin, Tibialis anterior, Median [2, 7]: 33494
findings of overt toxicity [3]: No findings of overt toxicity were observed
Exposures (AUC), dose dependence ([4]; Groups 2 and 3: 25 and 100 mg/kg PO, Vehicle 1): dose proportional
half-life ([4]; 25 mg/kg, Group 2: 25 mg/kg PO, Vehicle 1 (0.5% HPMC with 0.1% Tween 80)): 2.9 h
AUC(0-t) [4, 8]: 3880 ng·h/mL
Cmax [4, 8]: 703 ng/mL
AUC(0-inf) [4, 8]: 3900 ng·h/mL
AUC(0-t) [4, 9]: 16700 ng·h/mL
Cmax [4, 9]: 1960 ng/mL
half-life [4, 9]: 2.11 h
AUC(0-inf) [4, 9]: 16700 ng·h/mL
half-life ([4]; 100 mg/kg, Group 4: 100 mg/kg PO, Vehicle 2 (Solubilized Lipid)): 2.3 h
AUC(0-t) [4, 10]: 17100 ng·h/mL
Cmax [4, 10]: 2090 ng/mL
AUC(0-inf) [4, 10]: 17200 ng·h/mL
Tmax ([4]; Group 2: 25 mg/kg PO, Vehicle 1): 4 h
Tmax ([4]; Group 3: 100 mg/kg PO, Vehicle 1): 4 h
Exposures (AUC), Vehicle 1 compared to Vehicle 2 ([4]; oral dosing (PO), 100 mg/kg): similar
